Experimental data: article PMC8694812 (RSC Advances, 2021)

Tests used:
[1] = ZnPc standard, cited from earlier work
A549 cells = assay: MTT cell viability of A549 cells, dark and 660 nm LED irradiation; assay type: cell-based, human; conditions: 24 hours, 660 nm 30 min
[2] = DMSO, ZnPc standard; cited from earlier work
[3] = ZnPc standard, cited from earlier work; remark: listed apart in the source
BEAS-2B cells = assay: MTT cell viability of BEAS-2B cells, dark and 660 nm LED irradiation; assay type: cell-based, human; conditions: Eu bis up to 50 μM, Lu bis above 2.5 μM, ZnPc 0.25 μM or above

[Zn+2].c1ccc2c(c1)-c1nc-2nc2[n-]c(nc3nc([n-]c4nc(n1)-c1ccccc1-4)-c1ccccc1-3)c1ccccc21 [ZnPc, unsubstituted zinc(II)phthalocyanine]
Direct ΦΔ in THF ([1]; fraction): 0.530 (ref. [66]) | ΦΔ (%) Direct in THF ([1]; singlet oxygen quantum yield, THF): 53% | effect of light irradiation on viability/toxicity (A549 cells): high toxicity in the sub-μM range | ΦF (fluorescence quantum yield) [2]: 0.180 (ref. [64]) | Indirect ΦΔ in DMSO ([3]; fraction): 0.670 (ref. [65]) | ΦΔ (%) Indirect in DMSO ([3]; singlet oxygen quantum yield, DMSO): 67% | effect of light irradiation on viability (BEAS-2B cells): reduced the viability
